Here are results for 1 compound from patent US20090176888A1, “COMPOSITION COMPRISING PHYTOSPHINGOSINE OR DERIVATIVE THEREOF” (KOREA INSTITUTE OF RADIOLOGICAL & MEDICAL SCIENCES, priority 2003, published 2009).

Some results are limits rather than exact numbers.

Data set [1] deals with human breast cancer cells (MDA-MB-231). In words: Apoptosis test (Sub G1, propidium iodide, flow cytometry). Type of data set: cell-based. The procedure: (§1) Cancer cells as used in the experiment were human lung cancer cells (NCI-H460, Korean Cell Line Bank), human breast cancer cells (MDA-MB-231, American Type Culture Collection (ATCC)), human uterine cervical cancer cells (HeLa, Korean Cell Line Bank), and blood cancer cells (Jurkat, ATCC). These cancer cells were cultured in RPMI 1640 media containing 10% FBS, penicillin, and streptomycin (GIBCO BRL). The apoptosis tests were carried out at human lung cancer cells, breast cancer cells, uterine cervical cancer cells, and blood cancer cells as follows: Phytosphingosine or a derivative thereof was dissolved in DMSO. Samples of the resultant solution of different concentration levels (1, 2, 5, 10, 15, 20 μg/ml) were prepared. According to the following treatment schedule, phytosphingosine treated cancer cells were cultured, washed with PBS (phosphate buffered saline), and fixed with 70% ethanol. The fixed cells were again washed with PBS, suspended in PBS, and 1 mg/ml of RNase was added thereto. Then, DNA was stained with 50 μg/ml of propidium iodide fluorescent dye and the change in the Sub G1 was analyzed by flow cytometry (Becton DICKINSON). The Sub G1, a marker of apoptotic cell death, means DNA distribution lower than that in the G1 phase of cell cycle. (1-1) In order to determine an anticancer effect of phytosphingosine, 5 ml of 10 μg/ml of phytosphingosine was added to respective dishes containing lung cancer cells, breast cancer cells, uterine cervical cancer cells, and blood cancer cells. (1-2) In order to examine a correlation of an anticancer effect with the phytosphingosine concentration and post-treatment culture time, each 5 ml of 2, 5, 10, and 15 μg/ml of phytosphingosine was added to respective human uterine cervical cancer cell-containing dishes and human breast cancer cell-containing dishes. In addition, each 5 ml of 5, 10, 15, and 20 μg/ml of phytosphingosine was added to respective human lung cancer cell-containing dishes, and each 5 ml of 1, 5, 10, and 20 μg/ml of phytosphingosine was added to respective human blood cancer cell-containing dishes.
Background: A flow cytometer gives signals particle by particle.

In data set [2] the test system is human uterine cervical cancer cells (HeLa). Described as above. It counts as cell-based. The procedure: as §1
The test system of data set [3] is human lung cancer cells. In words: Analysis of mitochondrial membrane potential (DioC6(3), flow cytometry) and cytochrome c release. It counts as cell-based. Conditions: 10 μg/ml phytosphingosine. The procedure: (§2) Human lung cancer cells and blood cancer cells were cultured under the same condition as in the apoptosis test and were treated with 10 ml of phytosphingosine (10 μg/ml of phytosphingosine for lung cancer cells, and 5 μg/ml and 10 μg/ml of phytosphingosine for blood cancer cells). Then, the analysis of mitochondrial membrane potential and western blotting was carried out. Mitochondria were stained with 30 nM of a specific DioC6(3) dye (Calbiochem) for 30 minutes and culture media were removed. Then, lung cancer cells were twice washed with PBS and the membrane potential was analyzed by flow cytometry.

Another data set concerns human blood cancer cells. In words: Analysis of mitochondrial membrane potential and cytochrome c release. It counts as cell-based. The note with it: 5 and 10 μg/ml phytosphingosine. As for the experimental part:
as §2

Data set [4] relates to caspases in human blood cancer cells. In words: Western blotting of caspase-3, caspase-8, caspase-9 and PARP. Type of data set: cell-based. The note with it: 5 and 10 μg/ml phytosphingosine, FIG. 10. As for the experimental part: (§3) Human lung cancer cells and blood cancer cells were cultured under the same condition as in the apoptosis test and were treated with 10 ml of phytosphingosine (10 μg/ml of phytosphingosine for lung cancer cells, and 5 μg/ml and 10 μg/ml of phytosphingosine for blood cancer cells). Then, the analysis of mitochondrial membrane potential and western blotting was carried out. Phytosphingosine-treated human lung cancer cells and blood cancer cells were dissolved in a protease inhibitor-containing lysis buffer (40 mM Tris-Cl (pH 8.0), 120 mM NaCl, 0.1% […]) and centrifuged to give a protein extract. Pure proteins were isolated from the protein extract using SDS-PAGE and transferred to a nitrocellulose membrane. The protein-bound nitrocellulose membrane was blocked with skim milk and incubated with as caspase-3, caspase-8, caspase-9, and poly(ADP-ribose)polymerase (PARP) as primary antibodies at room temperature for one hour. The primary antibodies-bound nitrocellulose membranes were three times washed with PBS-T (phosphate buffered saline, 0.1% Tween-20) and incubated with HRP (Horse Radish Peroxidase)-conjugated secondary antibodies for one hour. The expression of caspase-3, caspase-8, caspase-9, and PARP was detected using ECL reagent (PerkinElmer Life Science, Inc.).
Background: A western blot detects proteins with antibodies after separation by electrophoresis.

The test system of data set [5] is caspases in human lung cancer cells. Described as above. It counts as cell-based. Conditions: 10 μg/ml phytosphingosine, FIG. 10. As for the experimental part:
as §3

For data set [6], the system named is human uterine cervical cancer cells (NCI-H460 cells). Description: In vivo animal test, tumor volume in transplanted nude mice (phytosphingosine alone). Conditions: FIG. 11. The procedure: Nude mice (body weight: about 20 g) were randomized into 2 groups: a first group is for a control group and a second group is for treatment with phytosphingosine. The femoral region of the nude mice was transplanted with human uterine cervical cancer cells ([…]). Then, tumor volume was allowed to reach a level of […]. A 50 mg/kg solution of phytosphingosine in an olive oil was orally administered to the second group for one week on a daily basis.

For data set [7], the system named is human lung cancer cells. In words: Colony formation test in combination with radiation. The note with it: FIG. 12. It counts as cell-based. The procedure: Colony formation tests were carried out in human lung cancer cells, breast cancer cells, and uterine cervical cancer cells as follows:
Respective sphingosine, phytosphingosine, C6PS, and C8PS were dissolved ethanol to produce specimens. About 600 cells (for each cancer) were plated in a dish with a diameter of 60 mm and incubated in a CO2 incubator at 37° C. for a day. Then, the cancer cells were treated with the specimens in combination with radiation and were continuously cultured. When suitable colonies were formed, the cancer cells were fixed with a fixing solution (methanol/acetic acid=3:1) and stained with trypan blue. Then, the number of the colonies was counted and the results were evaluated in a comparative manner.

Data set [8] can be described thus: Oral or transdermal toxicity tests. Conditions: rat, in vivo, other: oral or transdermal, rats.
Setting [9] is: 10 μg/ml phytosphingosine, test (1-1), FIG. 1.

The term LD50 denotes the dose at which mortality reaches 50%. Regarding `CCCCCCCCCCCCCC[C@@H](O)[C@@H](O)[C@@H](N)CO` [phytosphingosine], the apoptosis in [1] (10 μg/ml or more, culture of 12 hours or more, FIG. 4) is given as at least 50%; in data set [1] (10 μg/ml, at 12 hours after treatment), 50%; in data set [2] (15 μg/ml or more, culture of 12 hours or more, FIG. 3) it was at least 50%; in data set [2] (15 μg/ml, at 12-18 hours after treatment) it was 50%. Further, the “anticancer effect compared to untreated cancer cells” value in data set [1] (setting [9]) and in [2] (setting [9]) was “excellent anticancer effects” in each case. Besides, the “release of cytochrome c from mitochondria” value in the data set with human lung cancer cells [3] (FIGS. 7, 9) is “increased”; with human blood cancer cells, “increased”. In addition, the mitochondrial membrane potential result in the data set with human lung cancer cells [3] (FIGS. 7-8) and with human blood cancer cells was “decreased” each time. The “activities of the caspases” value in data set [4] and in data set [5] was “considerably increased” throughout. In addition, the “inhibitory effect on tumor growth compared to control group” value in data set [6] (50 mg/kg/day oral for one week, at the 40th day) is on record as “potent inhibitory effect on tumor growth”. Besides, in data set [6] (50 mg/kg/day oral in olive oil for one week, versus control group), the tumor size change entry was “did not show changes for 20 days”. The “reduction of tumor growth, concurrent treatment vs radiation, sphingosine or PS alone” value in the data set on human lung cancer cells [7] (PS in combination with radiation) was at least 30%. In the data set on human lung cancer cells [7] (in combination with radiation), the “sensitizer enhancement ratio (SER)” value was 1.21. In [8], this compound registered an LD50 of at least 2000 mg/kg.
